# Results: ChEMBL document CHEMBL1201862, “PubChem BioAssay data set” (2004)
# Calls of active or inactive are those of the source.
# Key:
# [1] = molecular target: T1, Microphthalmia-associated transcription factor (Homo sapiens, UniProt O75030); test: reducers of TRPM1 reporter luminescence, concentration series – cell-based, SK-MEL-5, cherry-picked, set 3, MITF inhibitor project, dose response (AID 493073); type: functional;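 also: SK-MEL-5 melanoma cells with luciferase driven by the MITF target TRPM1 promoter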
# T1 sequence (O75030 whole entry): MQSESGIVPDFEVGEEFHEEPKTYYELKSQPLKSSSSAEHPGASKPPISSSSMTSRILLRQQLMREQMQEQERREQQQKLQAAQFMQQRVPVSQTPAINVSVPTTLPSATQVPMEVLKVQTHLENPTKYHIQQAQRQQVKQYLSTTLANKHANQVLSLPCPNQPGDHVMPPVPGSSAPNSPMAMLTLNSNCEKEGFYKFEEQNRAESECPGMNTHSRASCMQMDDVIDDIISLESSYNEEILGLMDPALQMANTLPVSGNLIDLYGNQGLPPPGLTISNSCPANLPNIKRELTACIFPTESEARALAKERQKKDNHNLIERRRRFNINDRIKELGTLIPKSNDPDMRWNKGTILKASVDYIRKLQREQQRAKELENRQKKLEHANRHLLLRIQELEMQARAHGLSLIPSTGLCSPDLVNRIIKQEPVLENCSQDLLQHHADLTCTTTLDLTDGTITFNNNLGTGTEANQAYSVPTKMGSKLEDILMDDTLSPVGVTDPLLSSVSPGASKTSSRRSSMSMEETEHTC
# [2] = molecular target: T2, Protein RecA (Mycobacterium tuberculosis, UniProt P9WHJ3); test: Fluorescence Cell-Free Homogeneous Dose Retest to Identify Inhibitors of RecA-Intein Splicing Activity. [Related pubchem assays (depositor defined):AID2097, AID2223, AID489010, AID492950]; type: functional
# T2 sequence (P9WHJ3 whole entry): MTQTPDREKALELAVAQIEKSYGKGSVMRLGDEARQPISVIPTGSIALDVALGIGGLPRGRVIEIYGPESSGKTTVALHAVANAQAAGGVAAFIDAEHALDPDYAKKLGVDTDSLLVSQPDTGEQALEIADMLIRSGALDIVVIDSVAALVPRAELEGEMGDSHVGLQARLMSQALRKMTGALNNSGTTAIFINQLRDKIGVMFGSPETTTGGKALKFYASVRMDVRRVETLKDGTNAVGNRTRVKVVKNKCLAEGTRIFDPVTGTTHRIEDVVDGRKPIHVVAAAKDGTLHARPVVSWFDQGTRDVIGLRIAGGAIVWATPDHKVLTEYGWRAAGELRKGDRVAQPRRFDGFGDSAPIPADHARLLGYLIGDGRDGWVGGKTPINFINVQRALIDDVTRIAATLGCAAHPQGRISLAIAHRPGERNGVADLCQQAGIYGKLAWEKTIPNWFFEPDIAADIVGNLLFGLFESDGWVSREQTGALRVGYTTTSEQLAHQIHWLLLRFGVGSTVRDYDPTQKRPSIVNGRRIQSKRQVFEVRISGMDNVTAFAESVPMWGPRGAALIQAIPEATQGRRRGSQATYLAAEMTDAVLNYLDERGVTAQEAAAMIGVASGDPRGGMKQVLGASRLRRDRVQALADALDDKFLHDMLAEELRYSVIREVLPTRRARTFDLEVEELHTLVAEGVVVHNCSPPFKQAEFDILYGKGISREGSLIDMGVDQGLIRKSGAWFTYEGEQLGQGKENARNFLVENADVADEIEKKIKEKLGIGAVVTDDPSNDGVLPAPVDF
# [3] = molecular target: T3, Hexokinase HKDC1 (Homo sapiens, UniProt Q2TB90); test: inhibition of HKDC1 glucose phosphorylation – biochemical, W721R variant, dose response (AID 504729); type: functional
# T3 sequence (Q2TB90 whole entry): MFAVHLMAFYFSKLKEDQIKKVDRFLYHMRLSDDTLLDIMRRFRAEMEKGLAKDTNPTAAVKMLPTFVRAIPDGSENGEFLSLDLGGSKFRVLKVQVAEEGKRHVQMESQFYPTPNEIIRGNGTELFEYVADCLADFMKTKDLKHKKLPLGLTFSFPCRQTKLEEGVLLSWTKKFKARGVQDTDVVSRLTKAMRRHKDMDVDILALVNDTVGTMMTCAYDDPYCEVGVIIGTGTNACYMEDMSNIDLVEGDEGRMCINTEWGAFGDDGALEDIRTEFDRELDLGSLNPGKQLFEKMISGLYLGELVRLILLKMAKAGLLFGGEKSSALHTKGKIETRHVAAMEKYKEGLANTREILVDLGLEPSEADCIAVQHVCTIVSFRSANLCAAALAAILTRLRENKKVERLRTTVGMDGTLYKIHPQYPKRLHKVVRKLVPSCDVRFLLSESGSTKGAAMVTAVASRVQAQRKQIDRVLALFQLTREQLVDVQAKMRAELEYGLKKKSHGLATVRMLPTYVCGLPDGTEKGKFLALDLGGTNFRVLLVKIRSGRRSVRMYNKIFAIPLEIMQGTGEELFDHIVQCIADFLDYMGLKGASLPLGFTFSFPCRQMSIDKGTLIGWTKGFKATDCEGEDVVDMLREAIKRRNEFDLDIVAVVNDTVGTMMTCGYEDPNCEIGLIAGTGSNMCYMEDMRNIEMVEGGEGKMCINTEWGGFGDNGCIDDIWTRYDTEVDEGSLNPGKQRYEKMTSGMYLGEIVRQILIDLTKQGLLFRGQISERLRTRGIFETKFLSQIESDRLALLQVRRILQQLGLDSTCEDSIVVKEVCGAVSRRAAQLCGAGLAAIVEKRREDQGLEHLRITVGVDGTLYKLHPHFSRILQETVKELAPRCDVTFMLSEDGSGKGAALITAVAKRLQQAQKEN
# [4] = Trypanosoma cruzi growth suppression in host cells – NIH3T3 host cells, beta-gal luminescence, confirmation (AID 2044); type: functional, cell-based;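 also: intracellular parasites grown in NIH/3T3 mouse fibroblasts as host cells; luminescent beta-galactosidase reporter signal from transgenic T. cruzi replicating inside host cells; inhibitors lower the luminescence signal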
# [5] = NIH-3T3 fibroblast cytotoxicity, dose response, cytotoxicity control, cell-based, fluorescence, Alamar Blue, secondary assay (AID 2327); type: functional;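 also: NIH-3T3 mouse fibroblasts cultured with fluconazole at 8 µg/mL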
# [6] = molecular target: Nonstructural protein 1 (Influenza A virus, UniProt Q194T2); type: functional, Influenza A virus (A/California/07/2009(H1N1))
# [7] = molecular target: Leukocyte tyrosine kinase receptor (Homo sapiens, UniProt P29376); test: Navigating the Kinome. Panel member name: LTK; type: functional
# [8] = molecular target: Tyrosine-protein kinase JAK3 (Homo sapiens, UniProt P52333); type: functional
# [9] = molecular target: Dual specificity protein kinase CLK4 (Homo sapiens, UniProt Q9HAZ1); type: functional
# [10] = molecular target: Macrophage colony-stimulating factor 1 receptor (Homo sapiens, UniProt P07333); type: functional;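 also: value comes from the Navigating the Kinome screening panel, CSF1R member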
# [11] = molecular target: Glycogen synthase kinase-3 beta (Homo sapiens, UniProt P49841); type: functional;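 also: value comes from a broad kinome profiling panel, with GSK3B as the panel member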
# [12] = molecular target: Inhibitor of nuclear factor kappa-B kinase subunit epsilon (Homo sapiens, UniProt Q14164); test: Navigating the Kinome. Panel member name: IKBKE; type: functional
# [13] = molecular target: Mitogen-activated protein kinase 10 (Homo sapiens, UniProt P53779); test: Navigating the Kinome. Panel member name: MAPK10; type: functional
# Chain of Mitogen-activated protein kinase 10 (P53779 whole entry): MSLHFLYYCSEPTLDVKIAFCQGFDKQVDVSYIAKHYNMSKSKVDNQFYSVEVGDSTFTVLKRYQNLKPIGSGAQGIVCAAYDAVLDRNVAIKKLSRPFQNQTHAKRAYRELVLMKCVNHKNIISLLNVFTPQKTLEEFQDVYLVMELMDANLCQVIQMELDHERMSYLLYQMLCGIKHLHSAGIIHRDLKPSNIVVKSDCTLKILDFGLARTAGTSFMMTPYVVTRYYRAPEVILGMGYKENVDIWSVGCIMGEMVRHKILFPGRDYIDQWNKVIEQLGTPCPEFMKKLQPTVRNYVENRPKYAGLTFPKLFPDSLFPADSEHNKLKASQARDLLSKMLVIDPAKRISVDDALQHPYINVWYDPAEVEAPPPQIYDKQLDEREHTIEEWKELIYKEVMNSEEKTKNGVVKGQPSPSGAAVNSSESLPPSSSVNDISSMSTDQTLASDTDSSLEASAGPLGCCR
# Chain of Macrophage colony-stimulating factor 1 receptor (P07333 whole entry): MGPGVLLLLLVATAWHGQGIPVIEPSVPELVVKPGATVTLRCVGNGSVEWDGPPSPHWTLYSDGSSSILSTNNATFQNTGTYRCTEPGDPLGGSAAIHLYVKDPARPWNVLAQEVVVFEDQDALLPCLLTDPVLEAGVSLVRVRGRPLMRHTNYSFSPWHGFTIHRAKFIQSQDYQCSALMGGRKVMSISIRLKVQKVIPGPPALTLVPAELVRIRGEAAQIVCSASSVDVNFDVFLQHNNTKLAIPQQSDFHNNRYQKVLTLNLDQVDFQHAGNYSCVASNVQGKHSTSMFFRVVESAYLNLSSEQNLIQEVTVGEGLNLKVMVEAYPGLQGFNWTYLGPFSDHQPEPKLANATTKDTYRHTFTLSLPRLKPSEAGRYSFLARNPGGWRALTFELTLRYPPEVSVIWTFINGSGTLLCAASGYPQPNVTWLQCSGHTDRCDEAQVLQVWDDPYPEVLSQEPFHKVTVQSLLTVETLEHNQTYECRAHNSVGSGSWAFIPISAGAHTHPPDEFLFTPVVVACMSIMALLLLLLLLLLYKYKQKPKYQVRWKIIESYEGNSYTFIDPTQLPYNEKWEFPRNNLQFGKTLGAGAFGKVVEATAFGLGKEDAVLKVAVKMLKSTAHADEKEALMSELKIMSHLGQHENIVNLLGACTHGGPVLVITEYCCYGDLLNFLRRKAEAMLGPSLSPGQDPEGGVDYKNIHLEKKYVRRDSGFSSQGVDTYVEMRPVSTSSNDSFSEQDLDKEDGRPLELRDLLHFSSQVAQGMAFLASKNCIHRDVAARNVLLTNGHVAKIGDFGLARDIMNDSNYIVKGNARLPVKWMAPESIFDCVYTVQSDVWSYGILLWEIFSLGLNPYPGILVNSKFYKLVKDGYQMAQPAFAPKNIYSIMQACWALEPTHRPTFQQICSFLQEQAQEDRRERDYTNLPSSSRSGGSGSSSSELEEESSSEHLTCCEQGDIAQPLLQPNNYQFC
# Chain of Tyrosine-protein kinase JAK3 (P52333 whole entry): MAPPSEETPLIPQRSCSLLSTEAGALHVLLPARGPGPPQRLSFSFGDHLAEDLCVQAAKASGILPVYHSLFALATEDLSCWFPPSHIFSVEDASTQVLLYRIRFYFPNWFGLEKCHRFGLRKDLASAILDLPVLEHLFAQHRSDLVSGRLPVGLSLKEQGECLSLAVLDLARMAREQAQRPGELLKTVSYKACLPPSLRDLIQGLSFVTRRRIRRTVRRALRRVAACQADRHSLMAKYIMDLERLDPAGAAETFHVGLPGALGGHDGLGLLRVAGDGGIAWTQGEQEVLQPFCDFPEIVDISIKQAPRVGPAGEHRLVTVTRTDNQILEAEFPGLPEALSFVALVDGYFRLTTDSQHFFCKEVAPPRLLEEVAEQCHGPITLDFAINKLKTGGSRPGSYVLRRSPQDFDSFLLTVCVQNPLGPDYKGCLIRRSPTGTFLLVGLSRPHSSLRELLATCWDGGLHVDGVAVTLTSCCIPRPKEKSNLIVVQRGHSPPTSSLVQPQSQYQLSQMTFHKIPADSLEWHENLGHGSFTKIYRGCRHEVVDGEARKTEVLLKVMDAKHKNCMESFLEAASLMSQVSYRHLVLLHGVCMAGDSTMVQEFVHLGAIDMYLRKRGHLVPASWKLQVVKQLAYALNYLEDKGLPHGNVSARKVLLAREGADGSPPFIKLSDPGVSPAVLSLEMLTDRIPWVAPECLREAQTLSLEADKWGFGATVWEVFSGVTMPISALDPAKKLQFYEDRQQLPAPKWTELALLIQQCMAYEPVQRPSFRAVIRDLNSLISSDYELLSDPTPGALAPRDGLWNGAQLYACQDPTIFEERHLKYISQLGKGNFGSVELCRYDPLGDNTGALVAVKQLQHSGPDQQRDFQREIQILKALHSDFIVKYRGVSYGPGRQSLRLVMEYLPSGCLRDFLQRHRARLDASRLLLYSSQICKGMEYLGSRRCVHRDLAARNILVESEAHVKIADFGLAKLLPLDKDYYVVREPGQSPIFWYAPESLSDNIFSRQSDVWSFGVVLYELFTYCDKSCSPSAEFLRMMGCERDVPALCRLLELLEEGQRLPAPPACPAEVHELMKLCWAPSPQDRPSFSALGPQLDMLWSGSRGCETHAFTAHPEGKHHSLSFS
# Chain of Dual specificity protein kinase CLK4 (Q9HAZ1 whole entry): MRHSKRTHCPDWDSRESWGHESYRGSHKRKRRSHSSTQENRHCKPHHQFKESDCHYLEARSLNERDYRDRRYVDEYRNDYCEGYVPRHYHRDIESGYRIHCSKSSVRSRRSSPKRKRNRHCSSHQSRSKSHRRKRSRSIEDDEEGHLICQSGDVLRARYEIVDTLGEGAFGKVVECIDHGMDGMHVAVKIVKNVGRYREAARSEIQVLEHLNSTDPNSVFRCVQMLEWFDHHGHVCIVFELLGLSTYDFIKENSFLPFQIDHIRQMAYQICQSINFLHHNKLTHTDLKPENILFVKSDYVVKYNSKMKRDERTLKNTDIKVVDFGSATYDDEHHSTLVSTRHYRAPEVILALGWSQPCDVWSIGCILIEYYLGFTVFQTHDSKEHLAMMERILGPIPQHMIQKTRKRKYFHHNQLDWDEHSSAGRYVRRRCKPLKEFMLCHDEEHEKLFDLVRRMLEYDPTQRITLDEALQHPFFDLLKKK
# Chain of Inhibitor of nuclear factor kappa-B kinase subunit epsilon (Q14164 whole entry): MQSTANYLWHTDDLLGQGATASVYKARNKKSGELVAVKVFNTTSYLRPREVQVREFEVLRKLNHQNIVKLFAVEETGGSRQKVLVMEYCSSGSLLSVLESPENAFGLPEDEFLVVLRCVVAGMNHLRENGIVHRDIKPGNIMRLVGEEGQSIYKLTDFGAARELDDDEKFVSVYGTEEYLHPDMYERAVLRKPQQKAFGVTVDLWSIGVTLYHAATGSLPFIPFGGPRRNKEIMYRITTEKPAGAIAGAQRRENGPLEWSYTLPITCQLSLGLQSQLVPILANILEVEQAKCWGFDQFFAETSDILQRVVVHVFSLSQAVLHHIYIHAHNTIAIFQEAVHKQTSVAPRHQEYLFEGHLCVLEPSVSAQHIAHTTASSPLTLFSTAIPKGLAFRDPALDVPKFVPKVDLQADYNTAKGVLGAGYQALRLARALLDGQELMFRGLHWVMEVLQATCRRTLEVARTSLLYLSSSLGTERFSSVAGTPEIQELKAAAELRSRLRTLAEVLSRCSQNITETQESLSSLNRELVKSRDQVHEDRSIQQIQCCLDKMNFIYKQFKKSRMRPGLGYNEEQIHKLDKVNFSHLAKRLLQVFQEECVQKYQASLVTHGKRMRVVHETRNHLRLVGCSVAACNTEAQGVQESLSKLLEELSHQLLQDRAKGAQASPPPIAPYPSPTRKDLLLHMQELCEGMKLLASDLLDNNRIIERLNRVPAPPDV
# Chain of Nonstructural protein 1 (Q194T2 whole entry): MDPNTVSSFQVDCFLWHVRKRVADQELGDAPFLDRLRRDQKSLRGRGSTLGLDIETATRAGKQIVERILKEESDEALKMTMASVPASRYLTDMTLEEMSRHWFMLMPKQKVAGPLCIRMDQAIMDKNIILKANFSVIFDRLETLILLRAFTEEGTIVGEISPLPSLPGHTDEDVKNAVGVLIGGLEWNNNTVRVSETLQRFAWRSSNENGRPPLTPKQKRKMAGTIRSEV
# Chain of Leukocyte tyrosine kinase receptor (P29376 whole entry): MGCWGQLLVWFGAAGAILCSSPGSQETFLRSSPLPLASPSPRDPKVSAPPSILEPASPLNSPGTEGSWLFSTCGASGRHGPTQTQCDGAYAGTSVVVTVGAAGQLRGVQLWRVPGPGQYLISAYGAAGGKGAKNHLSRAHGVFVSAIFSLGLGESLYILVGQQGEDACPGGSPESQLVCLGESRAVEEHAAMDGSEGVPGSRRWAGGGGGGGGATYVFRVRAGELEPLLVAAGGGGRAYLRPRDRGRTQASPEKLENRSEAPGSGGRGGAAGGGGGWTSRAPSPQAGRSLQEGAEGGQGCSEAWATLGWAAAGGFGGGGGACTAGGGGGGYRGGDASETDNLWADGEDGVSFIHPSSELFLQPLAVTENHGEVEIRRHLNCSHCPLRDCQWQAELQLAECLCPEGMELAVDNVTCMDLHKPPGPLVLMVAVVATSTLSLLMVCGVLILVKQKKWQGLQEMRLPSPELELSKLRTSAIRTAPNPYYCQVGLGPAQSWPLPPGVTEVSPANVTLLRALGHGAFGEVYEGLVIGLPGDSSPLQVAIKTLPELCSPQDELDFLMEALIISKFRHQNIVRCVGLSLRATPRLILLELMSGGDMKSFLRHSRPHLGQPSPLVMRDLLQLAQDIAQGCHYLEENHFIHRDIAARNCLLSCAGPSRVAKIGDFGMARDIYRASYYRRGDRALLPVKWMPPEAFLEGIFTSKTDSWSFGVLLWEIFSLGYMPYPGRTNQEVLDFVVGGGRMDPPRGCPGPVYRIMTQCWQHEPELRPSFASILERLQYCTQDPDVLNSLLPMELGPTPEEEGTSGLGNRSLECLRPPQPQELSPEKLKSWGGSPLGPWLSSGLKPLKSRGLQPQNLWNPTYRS
compound,measurement,setting,value
CCc1cc[n+](C2=C([N-]S(=O)(=O)c3cccs3)C(=O)c3ccccc3C2=O)cc1,AC50,[1],1150 nM (active)
O=C(NC1=C(NC2CCS(=O)(=O)C2)C(=O)c2ccccc2C1=O)c1ccccc1 (stereo not drawn),EC50,[2],101 nM (active)
same,IC50,[3],5140 nM (active)
CCCC(=O)NC(c1ccc(N(C)C)cc1)c1ccc2cccnc2c1O (stereo not drawn),EC50,[4],480 nM (active)
same,EC50,[5],22900 nM (inconclusive)
same,IC50,[6],17700 nM (active)
O=C1NC(=O)C(c2c[nH]c3ccccc23)=C1c1nc(N2CCNCC2)nc2ccccc12,Ki,[7],794 nM (active)
same,Ki,[8],1260 nM (active)
same,Ki,[9],> 1580 nM (inactive)
same,Ki,[10],> 2510 nM (inactive)
same,Ki,[11],> 3980 nM (inactive)
same,Ki,[12],> 3160 nM (inactive)
same,Ki,[13],> 3160 nM (inactive)
